Here are results for three compounds from PubChem BioAssay AID288 (DTP/NCI, 2004).

Inconclusive results are not listed.

For this test, the system named is BDF1 mice, M5076 sarcoma s.c., survival/tumor T/C. Briefly: NCI In Vivo Anticancer Drug Screen. Data for tumor model Sarcoma M5076 (subcutaneous) in B6D2F1 (BDF1) mice. The method, then:
The antitumor activity of compounds was measured in mice bearing transplantable tumors. Survival or tumor size were measured and the results are expressed as the measurement made in the treated group (T) divided by the measurement made in the vehicle treated control group (C). The tumor model used in this assay is Sarcoma M5076 (subcutaneous) in B6D2F1 (BDF1) mice

Regarding `O=C1c2ccccc2C(=O)c2c(NCCNCCO)ccc(NCCNCCO)c21`, the T/C is, setting by setting: (endpoint: median survival time, dose: 7.78 mg/kg/injection, schedule: Q04DX004 (ip), vehicle: saline, higher = longer survival) 100 % of control; (endpoint: median survival time, dose: 7.78 mg/kg/injection, schedule: Q04DX004 (iv), vehicle: saline, higher = longer survival) 102 % of control; (endpoint: median survival time, dose: 13.0 mg/kg/injection, schedule: Q04DX004 (ip), vehicle: saline, higher = longer survival) 96 % of control; (endpoint: median survival time, dose: 13.0 mg/kg/injection, schedule: Q04DX004 (iv), vehicle: saline, higher = longer survival) 88 % of control; (endpoint: median survival time, dose: 21.6 mg/kg/injection, schedule: Q04DX004 (ip), vehicle: saline, higher = longer survival) 90 % of control; (endpoint: median survival time, dose: 21.6 mg/kg/injection, schedule: Q04DX004 (iv), vehicle: saline, higher = longer survival) 100 % of control. The T/C (endpoint: median survival time, dose: 36.0 mg/kg/injection, schedule: Q04DX004 (ip), vehicle: saline, higher = longer survival) was 103 % of control.

Turning to `NC(CSC(c1ccccc1)(c1ccccc1)c1ccccc1)C(=O)O` (stereo unspecified), the T/C was 103 % of control (endpoint: mean tumor weight, dose: 17.5 mg/kg/injection, schedule: Q02DX011 (ip), vehicle: acid diluted with saline, higher = larger tumour); 71 % of control (endpoint: mean tumor weight, dose: 17.5 mg/kg/injection, schedule: Q02DX011 (ip), vehicle: saline, higher = larger tumour); 87 % of control (endpoint: mean tumor weight, dose: 35.0 mg/kg/injection, schedule: Q02DX011 (ip), vehicle: acid diluted with saline, higher = larger tumour); 53 % of control (endpoint: mean tumor weight, dose: 35.0 mg/kg/injection, schedule: Q02DX011 (ip), vehicle: saline, higher = larger tumour); 24 % of control (endpoint: mean tumor weight, dose: 70.0 mg/kg/injection, schedule: Q02DX011 (ip), vehicle: acid diluted with saline, higher = larger tumour); 37 % of control (endpoint: mean tumor weight, dose: 70.0 mg/kg/injection, schedule: Q02DX011 (ip), vehicle: saline, higher = larger tumour). For the same compound, the T/C (endpoint: median tumor weight (est.), dose: 17.5 mg/kg/injection, schedule: Q02DX011 (ip), vehicle: acid diluted with saline, higher = larger tumour) was 490 % of control; the T/C (endpoint: median tumor weight (est.), dose: 17.5 mg/kg/injection, schedule: Q02DX011 (ip), vehicle: saline, higher = larger tumour) is 65 % of control; the T/C (endpoint: median tumor weight (est.), dose: 35.0 mg/kg/injection, schedule: Q02DX011 (ip), vehicle: acid diluted with saline, higher = larger tumour) is 336 % of control; the T/C (endpoint: median tumor weight (est.), dose: 35.0 mg/kg/injection, schedule: Q02DX011 (ip), vehicle: saline, higher = larger tumour) is 49 % of control; the T/C (endpoint: median tumor weight (est.), dose: 70.0 mg/kg/injection, schedule: Q02DX011 (ip), vehicle: acid diluted with saline, higher = larger tumour) was 293 % of control; the T/C (endpoint: median tumor weight (est.), dose: 70.0 mg/kg/injection, schedule: Q02DX011 (ip), vehicle: saline, higher = larger tumour) was 5 % of control.

Consider `NC(=O)c1csc(C2OC(CO)C(O)C2O)n1` (stereo unspecified), for which the T/C was 103 % of control (endpoint: median survival time, dose: 9.38 mg/kg/injection, schedule: Q01DX009 (ip), vehicle: saline, higher = longer survival); 97 % of control (endpoint: median survival time, dose: 18.8 mg/kg/injection, schedule: Q01DX009 (ip), vehicle: saline, higher = longer survival); 93 % of control (endpoint: median survival time, dose: 37.5 mg/kg/injection, schedule: Q01DX009 (ip), vehicle: saline, higher = longer survival); 94 % of control (endpoint: median survival time, dose: 75.0 mg/kg/injection, schedule: Q01DX009 (ip), vehicle: saline, higher = longer survival); 97 % of control (endpoint: median survival time, dose: 150.0 mg/kg/injection, schedule: Q01DX009 (ip), vehicle: saline, higher = longer survival); 97 % of control (endpoint: median survival time, dose: 300.0 mg/kg/injection, schedule: Q01DX009 (ip), vehicle: saline, higher = longer survival). Also, the T/C was 101 % of control (endpoint: median survival time, dose: 600.0 mg/kg/injection, schedule: Q01DX009 (ip), vehicle: saline, higher = longer survival); 95 % of control (endpoint: median tumor weight (est.), dose: 9.38 mg/kg/injection, schedule: Q01DX009 (ip), vehicle: saline, higher = larger tumour); 95 % of control (endpoint: median tumor weight (est.), dose: 18.8 mg/kg/injection, schedule: Q01DX009 (ip), vehicle: saline, higher = larger tumour); 100 % of control (endpoint: median tumor weight (est.), dose: 75.0 mg/kg/injection, schedule: Q01DX009 (ip), vehicle: saline, higher = larger tumour); 104 % of control (endpoint: median tumor weight (est.), dose: 150.0 mg/kg/injection, schedule: Q01DX009 (ip), vehicle: saline, higher = larger tumour); 91 % of control (endpoint: median tumor weight (est.), dose: 300.0 mg/kg/injection, schedule: Q01DX009 (ip), vehicle: saline, higher = larger tumour).
